Literature values in patent US5681738A, “Use of 10-oxo-trans-8-decenoic acid in mushroom cultivation” (The Penn State Research Foundation, priority 1992, dated 1997).

Test system: seed chamber of runner bean
Details: Zimmerman et al., (1979); cited from earlier work

For O=C/C=C/CCCCCCCCC(=O)O [12-Oxo-trans-10-dodecenoic acid], the “formation of an intumescence on seed chamber (in words)” value is given as “found to induce the formation of an intumescence”.
